Data on one compound can be found in patent publication US6472425B1, “Methods for treating female sexual dysfunctions” (NitroMed, Inc., priority 1997, dated 2002).

The assay deals with Human corpus cavernosum tissue. Briefly: In vitro comparative relaxation responses, isometric tension of phenylephrine-contracted tissue strips in organ chambers. Format: cell-based. Conditions: doses of 10 μM and 30 μM, compared with an equimolar dose of dipyridamole; tissue contracted with phenylephrine 7×10^−7 M; −100% = tone after papaverine 10^−4 M; FIG. 40. The text has this: In Vitro Comparative Relaxation Responses
Human corpus cavernosum tissue biopsies were obtained at the time of penile prosthesis implantation from impotent men. The tissue was maintained in a chilled Krebs-bicarbonate solution prior to assay. The tissue was cut into strips of 0.3×0.3×1 cm and suspended in organ chambers for isometric tension measurement. Tissues were incrementally stretched until optimal isometric tension for contraction was obtained. Once this was achieved, the tissues were contracted with phenylephine (7×10^−7 M) and once a stable contraction was achieved, the tissues were exposed to either dipyridamole or Example 1 (10^−6 to 3×10^−5 M) by cumulative additions to the chamber. At the end of the experiment papaverine (10^−4 M) is added to obtain maximal relaxation. […] Data are expressed as the percent loss in tone from the phenylephrine-induced contraction (0%=phenylephrine contraction; −100% tone after the administration of papaverine).

`CC(C)(CC(=O)OCCN(CCOC(=O)CC(C)(C)SN=O)c1nc(N2CCCCC2)c2nc(N(CCOC(=O)CC(C)(C)SN=O)CCOC(=O)CC(C)(C)SN=O)nc(N3CCCCC3)c2n1)SN=O` [Example 1, 2,6-bis(diethyl(3-methyl-3(nitrosothiol)butyric acid ester)amino)-4,8-dipiperidinopyrimido-[5,4d]-pyrimidine]: the “relaxing the phenylephrine-induced contraction (percent loss in tone from the phenylephrine-induced contraction)” value was “more efficacious”.
